# Data: ChEMBL document CHEMBL5329224, “Structure-Based Design and Evaluation of Reversible KRAS G13D Inhibitors” (ACS Med Chem Lett, 2024)
# What was measured:
# GTPase KRas = GTPase KRas (Homo sapiens, UniProt P01116, G13D); assay: Inhibition of Biotinylated KRAS G13D mutant (unknown origin) incubated for 20 mins in presence of BODIPY-GDP by HTRF assay
# [1] = Selectivity ratio of IC50 for inhibition of Biotinylated KRAS G13D mutant (unknown origin) to IC50 for inhibition of Biotinylated wild type KRAS (unknown origin)
# [2] = Half life in CD-1 mouse at 1 mg/kg,iv measured upto 9 hrs by LC-MS/MS analysis; assay type: ADME, organism-based; conditions: in vivo
# HCT-116 = assay: Antiproliferative activity against human HCT-116 cells assessed as cell growth inhibition incubated for 7 days by Cell Titer-Glo luminescent assay; assay type: functional, cell-based; conditions: HCT-116, 168 h
# [3] = Volume of distribution at steady state in CD-1 mouse at 1 mg/kg,iv measured upto 9 hrs by LC-MS/MS analysis; assay type: ADME, organism-based; conditions: in vivo
# [4] = Dissociation constant, pKa of compound; assay type: physicochemical
# Sequence of GTPase KRas (P01116 whole entry G13D): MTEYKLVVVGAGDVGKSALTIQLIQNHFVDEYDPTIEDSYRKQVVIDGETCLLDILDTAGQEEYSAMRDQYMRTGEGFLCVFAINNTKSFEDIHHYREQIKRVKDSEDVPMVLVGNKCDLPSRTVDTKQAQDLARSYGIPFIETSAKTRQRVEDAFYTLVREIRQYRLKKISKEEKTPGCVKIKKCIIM
Structure (SMILES),IC50 (GTPase KRas) [µM],Ratio IC50 [1],further results
Cc1cc(N)nc(-c2cc3nc(OC[C@@H]4CCCN4C)nc4c3c(c2Cl)OC[C@@H]2CN(C(=O)CC[C@@H]3CCCCN3)CCN42)c1C(F)(F)F,1.7,2.5,–
Cc1cc(N)nc(-c2cc3nc(OC[C@@H]4CCCN4C)nc4c3c(c2Cl)OC[C@@H]2CN(C(=O)[C@@H]3CC[C@H]3N)CCN42)c1C(F)(F)F,3,1.5,–
Cc1cc(N)nc(-c2cc3nc(OC[C@@H]4CCCN4C)nc4c3c(c2Cl)OC[C@@H]2CN(C(=O)C[C@H]3CCC35CNC5)CCN42)c1C(F)(F)F,3.5,1.1,–
Cc1cc(N)nc(-c2c(Cl)c3c4c(ncnc4c2F)N2CCN(C(=O)/C=C/c4nccc5c4CNCC5)C[C@H]2CO3)c1C(F)(F)F,2.7,5.9,–
Cc1cc(N)nc(-c2cc3nc(OC[C@@H]4CCCN4C)nc4c3c(c2Cl)OC[C@@H]2CN(C(=O)CCN)CCN42)c1C(F)(F)F,2.7,2.5,–
Cc1cc(N)nc(-c2cc3nc(OC[C@@H]4CCCN4C)nc4c3c(c2Cl)OC[C@@H]2CN(C(=O)[C@H](C)N(C)C)CCN42)c1C(F)(F)F,8.2,0.94,–
Cc1cc(N)nc(-c2cc3nc(OC[C@@H]4CCCN4C)nc4c3c(c2Cl)OC[C@@H]2CN(C(=O)CC3CCNCC3)CCN42)c1C(F)(F)F,4.8,2,–
Cc1cc(N)nc(-c2cc3nc(OC[C@@H]4CCCN4C)nc4c3c(c2Cl)OC[C@@H]2CN(C(=O)CC[C@@]3(C)CCCN3)CCN42)c1C(F)(F)F,1.9,2.4,–
Cc1cc(N)nc(-c2cc3nc(OC[C@@H]4CCCN4C)nc4c3c(c2Cl)OC[C@@H]2CN(C(=O)C3CCC5(CNC5)O3)CCN42)c1C(F)(F)F (mixture of isomers),1.6,2.5,–
Cc1cc(N)nc(-c2cc3nc(OC[C@@H]4CCCN4C)nc4c3c(c2Cl)OC[C@@H]2CN(C(=O)CC[C@H]3CCCCN3)CCN42)c1C(F)(F)F,2,2.3,–
Cc1cc(N)nc(-c2cc3nc(OC[C@@H]4CCCN4C)nc4c3c(c2Cl)OC[C@@H]2CN(C(=O)C[C@@H]3CCNC3)CCN42)c1C(F)(F)F,2.6,2.1,–
Cc1cc(N)nc(-c2cc3nc(OC[C@@H]4CCCN4C)nc4c3c(c2Cl)OC[C@@H]2CN(C(=O)C3CC35CCNCC5)CCN42)c1C(F)(F)F (mixture of isomers),2.4,2.1,–
Cc1cc(N)nc(-c2cc3nc(OC[C@@H]4CCCN4C)nc4c3c(c2Cl)OC[C@@H]2CN(C(=O)C3CC(N)CCO3)CCN42)c1C(F)(F)F (mixture of isomers),14,0.41,–
C=C1CN2CCC[C@@]2(COc2nc(N3CCN(C(=O)/C=C/c4cccc5c4CNCC5)C[C@@H]3C)c3cc(Cl)c(-c4nc(N)cc(C)c4C(F)(F)F)c(F)c3n2)C1,0.69,–,t1/2 [2]: 7.6 h; IC50 (HCT-116): 2.1 µM; Vdss [3]: 0.9 L/kg
Cc1cc(N)nc(-c2cc3nc(OC[C@@H]4CCCN4C)nc4c3c(c2Cl)OC[C@@H]2CN(C(=O)CCC3(N)CCOC3)CCN42)c1C(F)(F)F (mixture of isomers),1.3,2.5,–
C=C1CN2CCC[C@@]2(COc2nc(N3CCN(C(=O)/C=C/c4cccc5c4CN4CCC5C4)C[C@@H]3C)c3cc(Cl)c(-c4nc(N)cc(C)c4C(F)(F)F)c(F)c3n2)C1 (stereo in doubt; form 2) [listing 1 of 2 here],–,27,–
COC1CC(N)(C(=O)N2CCN3c4nc(OC[C@@H]5CCCN5C)nc5cc(-c6nc(N)cc(C)c6C(F)(F)F)c(Cl)c(c45)OC[C@@H]3C2)C1 (mixture of isomers),0.88,1.5,–
Cc1cc(N)nc(-c2cc3nc(OC[C@@H]4CCCN4C)nc4c3c(c2Cl)OC[C@@H]2CN(C(=O)CCC3CCNC3)CCN42)c1C(F)(F)F (mixture of isomers),2.1,2,–
C=C1CN2CCC[C@@]2(COc2nc(N3CCN(C(=O)/C=C/c4cccc5c4CN4CCC5C4)C[C@@H]3C)c3cc(Cl)c(-c4nc(N)cc(C)c4C(F)(F)F)c(F)c3n2)C1 (stereo in doubt; form 1) [listing 2 of 2 here],–,29,–
Cc1cc(N)nc(-c2cc3nc(OC[C@@H]4CCCN4C)nc4c3c(c2Cl)OC[C@@H]2CN(C(=O)C3CC35CNC5)CCN42)c1C(F)(F)F (mixture of isomers),2.4,1.3,–
Cc1cc(N)nc(-c2cc3nc(OC[C@@H]4CCCN4C)nc4c3c(c2Cl)OC[C@@H]2CN(C(=O)C3CCNCC3)CCN42)c1C(F)(F)F,3.2,2.2,–
Cc1cc(N)nc(-c2cc3nc(OC[C@@H]4CCCN4C)nc4c3c(c2Cl)OC[C@@H]2CN(C(=O)CC3CC5(CCC5)CN3)CCN42)c1C(F)(F)F (mixture of isomers),9,1.1,–
Cc1cc(N)nc(-c2cc3nc(OC[C@@H]4CCCN4C)nc4c3c(c2Cl)OC[C@@H]2CN(C(=O)C#CC3CCNC3)CCN42)c1C(F)(F)F (mixture of isomers),1.6,2.3,–

# Further molecules by falling IC50 (GTPase KRas), results first:
IC50 (GTPase KRas) [µM],Ratio IC50 [1],Structure (SMILES),further results
0.55,1.8,Cc1cc(N)nc(-c2cc3nc(OC[C@@H]4CCCN4C)nc4c3c(c2Cl)OC[C@@H]2CN(C(=O)C3(N)CC3)CCN42)c1C(F)(F)F,–
0.55,–,C=C1CN2CCC[C@@]2(COc2nc(N3CCN(C(=O)/C=C/c4cccc5c4CN4CCC5C4)C[C@@H]3C)c3cc(Cl)c(-c4nc(N)cc(C)c4C(F)(F)F)c(F)c3n2)C1 (stereo in doubt; form 2) [listing 2 of 2 here],–
0.53,5.7,C=C1CN2CCC[C@@]2(COc2nc(N3CCN(C(=O)/C=C/c4cc(CNC)ccn4)C[C@@H]3C)c3cc(Cl)c(-c4nc(N)cc(C)c4C(F)(F)F)c(F)c3n2)C1,pKa [4]: 8.4
0.52,9.2,C=C1CN2CCC[C@@]2(COc2nc(N3CCN(C(=O)/C=C/c4cc(CN(C)C)c(C)cn4)C[C@@H]3C)c3cc(Cl)c(-c4nc(N)cc(C)c4C(F)(F)F)c(F)c3n2)C1,–
0.5,9.6,C=C1CN2CCC[C@@]2(COc2nc(N3CCN(C(=O)/C=C/c4cc(CNC)c(C)cn4)C[C@@H]3C)c3cc(Cl)c(-c4nc(N)cc(C)c4C(F)(F)F)c(F)c3n2)C1,–
0.46,16,C=C1CN2CCC[C@@]2(COc2nc(N3CCN(C(=O)/C=C/c4cccc5c4CNC(C)(C)C5)C[C@@H]3C)c3cc(Cl)c(-c4nc(N)cc(C)c4C(F)(F)F)c(F)c3n2)C1,–
0.41,–,C=C1CN2CCC[C@@]2(COc2nc(N3CCN(C(=O)/C=C/c4cccc5c4CN4CCC5C4)C[C@@H]3C)c3cc(Cl)c(-c4nc(N)cc(C)c4C(F)(F)F)c(F)c3n2)C1 (stereo in doubt; form 1) [listing 1 of 2 here],–
0.34,15,C=C1CN2CCC[C@@]2(COc2nc(N3CCN(C(=O)/C=C/c4cc(C5CCN(C)CC5)c(C)cn4)C[C@@H]3C)c3cc(Cl)c(-c4nc(N)cc(C)c4C(F)(F)F)c(F)c3n2)C1,–
0.18,6.1,Cc1cc(N)nc(-c2cc3nc(OC[C@@H]4CCCN4C)nc4c3c(c2Cl)OC[C@@H]2CN(C(=O)/C=C/c3nccc5c3CNCC5)CCN42)c1C(F)(F)F,–
0.049,0.88,C=C1CN2CCC[C@@]2(COc2nc3c4c(c(Cl)c(-c5nc(N)cc(C)c5C(F)(F)F)cc4n2)OC[C@@H]2CN(C(=O)/C=C/c4nccc5c4CN(C)CC5)CCN32)C1,–
0.013,7.3,C=C1CN2CCC[C@@]2(COc2nc3c4c(c(Cl)c(-c5nc(N)cc(C)c5C(F)(F)F)cc4n2)OC[C@@H]2CN(C(=O)/C=C/c4nccc5c4CNCC5)CCN32)C1,–
0.0041,1.2,C=C1CN2CCC[C@@]2(COc2nc(N3CCN(C(=O)/C=C/c4cc(CN5CCOCC5)ccn4)C[C@@H]3C)c3cc(Cl)c(-c4nc(N)cc(C)c4C(F)(F)F)c(F)c3n2)C1,pKa [4]: 5.4
0.0015,–,C=C1CN2CCC[C@@]2(COc2nc3c4c(c(Cl)c(-c5nc(N)cc(C)c5C(F)(F)F)c(F)c4n2)OC[C@@H]2CN(C(=O)/C=C/c4nccc5c4CNCC5)CCN32)C1,t1/2 [2]: 3.2 h; IC50 (HCT-116): 6.1 µM; Vdss [3]: 0.42 L/kg
